Experimental data published in patent US10294202B2, “Pyrrolidinones as herbicides” (FMC Corporation, priority 2013, dated 2019).

Legend:
oilseed rape = test: Test D pre-/postemergence herbicide test; type: in vivo, Brassica napus; conditions: for Plant response rating: Postemergence, Oilseed Rape, scale 0 to 100; for Plant response rating, Oilseed Rape: Preemergence, scale 0 to 100 (0 no effect, 100 complete control)
Text: (§1) Seeds of plant species selected from bluegrass (annual bluegrass, Poa annua), blackgrass (Alopecurus myosuroides), canarygrass (littleseed canarygrass, Phalaris minor), chickweed (common chickweed, Stellaria media), galium (catchweed bedstraw, Galium aparine), bromegrass, downy (downy bromegrass, Bromus tectorum), field poppy (Papaver rhoeas), field violet (Viola arvensis), foxtail, green (green foxtail, Setaria viridis), deadnettle (henbit deadnettle, Lamium amplexicaule), ryegrass, Italian (Italian ryegrass, Lolium multiflorum), kochia (Kochia scoparia), lambsquarters (Chenopodium album), oilseed rape (Brassica napus), pigweed (Amaranthus retroflexus), chamomile (scentless chamomile, Matricaria inodora), Russian thistle (Salsola kali), speedwell (bird's-eye speedwell, Veronica persica), barley, spring (spring barley, Hordeum vulgare), wheat, spring (spring wheat, Triticum aestivum), buckwheat, wild (wild buckwheat, Polygonum convolvulus), mustard, wild (wild mustard, Sinapis arvensis), oat, wild (wild oat, Avena fatua), radish, wild (wild radish, Raphanus raphanistrum), […]), barley, winter (winter barley, Hordeum vulgare), and wheat, winter (winter wheat, Triticum aestivum) were planted into a silt loam soil and treated preemergence with test chemicals formulated in a non-phytotoxic solvent mixture which included a surfactant. At the same time, these species were planted in pots containing Redi-Earth® planting medium (Scotts Company, 14111 Scottslawn Road, Marysville, Ohio 43041) comprising spaghnum peat moss, vermiculite, wetting agent and starter nutrients and treated with postemergence applications of the test chemicals formulated in the same manner. Plants ranged in height from 2 to 18 cm (1- to 4-leaf stage). Treated plants and controls were maintained in a controlled growth environment for 7 to 21 days after which time all species were compared to controls and visually evaluated. Plant response ratings, summarized in Table D, are based on a scale of 0 to 100 where 0 is no effect and 100 is complete control. A dash (-) response means no test result.

mustard, wild = test: Test D pre-/postemergence herbicide test; type: in vivo, Sinapis arvensis; conditions: for Plant response rating: Mustard, Wild, scale 0 to 100; for Plant response rating, Mustard, Wild: scale 0 to 100 (0 no effect, 100 complete control)
Text: as §1

windgrass = test: Test D pre-/postemergence herbicide test; type: in vivo, Apera spica-venti; conditions: for Plant response rating: Postemergence, Windgrass, scale 0 to 100; for Plant response rating, Windgrass: Preemergence, scale 0 to 100 (0 no effect, 100 complete control)
Text: as §1

foxtail, green = test: Test D pre-/postemergence herbicide test; type: in vivo, Setaria viridis; conditions: for Plant response rating: Foxtail, Green, scale 0 to 100; for Plant response rating, Foxtail, Green: scale 0 to 100 (0 no effect, 100 complete control)
Text: as §1

deadnettle = test: Test D pre-/postemergence herbicide test; type: in vivo, Lamium amplexicaule; conditions: for Plant response rating: Deadnettle, scale 0 to 100; for Plant response rating, Deadnettle: scale 0 to 100 (0 no effect, 100 complete control)
Text: as §1

sprangletop, Brdd. = test: Test F flood (paddy) test; type: in vivo, Leptochloa fascicularis; conditions: 21 d, scale 0-100
Text: (§2) Three plastic pots (ca. 16-cm diameter) per rate were partially filled with sterilized Tama silt loam soil comprising a 35:50:15 ratio of sand, silt and clay and 2.6% organic matter. Separate plantings for each of the three pots were as follows. Seeds from the U.S. of monochoria (Monochoria vaginalis), sedge, umbrella (small-flower umbrella sedge, Cyperus difformis), bulrush, […] bulrush, Scirpus juncoides), and […] (purple […] coccinea), were planted into one 16-cm pot for each rate. Seeds from the U.S. of flatsedge, rice (rice flatsedge, Cyperus iria), sprangletop, Brdd. (bearded sprangletop, Leptochloa fascicularis), one stand of 9 or 10 water seeded rice seedlings (Rice, W.S. Jap, Oryza sativa cv. 'Japonica-[…]' or Rice, W.S. Ind, 'Indica'), and two stands of 3 or 4 seedlings of rice, transplanted (transplanted rice, Oryza sativa cv. 'Japonica-[…]') were planted into one 16-cm pot for each rate. Seeds from the U.S. of barnyardgrass (Echinochloa crus-galli), […] (common […], Alisma plantago-aquatica), and watergrass, late (late watergrass, Echinochloa oryzicola) were planted into one 16-cm pot for each rate. Plantings were sequential so that crop and weed species were at the 2.0 to 2.5-leaf stage at time of treatment. Potted plants were grown in a greenhouse with day/night temperature settings of 30/27° C., and supplemental balanced lighting was provided to maintain a 16-h photoperiod. Test pots were maintained in the greenhouse until test completion. At time of treatment, test pots were flooded to 3 cm above the soil surface, treated by application of test compounds directly to the paddy water, and then maintained at that water depth for the duration of the test. Effects of treatments on rice and weeds were visually evaluated by comparison to untreated controls after 21 d. Plant response ratings, summarized in Table F, are based on a scale of 0 to 100 where 0 is no effect and 100 is complete control. A dash (-) response means no test result.

watergrass, late = test: Test F flood (paddy) test; type: in vivo, Echinochloa oryzicola; conditions: 21 d, scale 0-100
Text: as §2

Compound: O=C1NCC(c2cc(F)c(F)c(F)c2)C1C(=O)Nc1ccccc1F (racemic) [Compound 34]
- Plant response rating (oilseed rape; 16 g ai/ha): 0
- Plant response rating (oilseed rape; 31 g ai/ha): 0
- Plant response rating (oilseed rape; 62 g ai/ha): 0
- Plant response rating (oilseed rape; 125 g ai/ha): 0
- Plant response rating (oilseed rape; 250 g ai/ha): 20
- Plant response rating (mustard, wild; Postemergence, 16 g ai/ha): 0
- Plant response rating (mustard, wild; Postemergence, 31 g ai/ha): 0
- Plant response rating (mustard, wild; Postemergence, 62 g ai/ha): 0
- Plant response rating (mustard, wild; Postemergence, 125 g ai/ha): 10
- Plant response rating (mustard, wild; Postemergence, 250 g ai/ha): 20
- Plant response rating (windgrass; 16 g ai/ha): 0
- Plant response rating (windgrass; 31 g ai/ha): 0
- Plant response rating (windgrass; 62 g ai/ha): 0
- Plant response rating (windgrass; 125 g ai/ha): 0
- Plant response rating (windgrass; 250 g ai/ha): 0
- Plant response rating (foxtail, green; Postemergence, 16 g ai/ha): 0
- Plant response rating (foxtail, green; Postemergence, 31 g ai/ha): 0
- Plant response rating (foxtail, green; Postemergence, 62 g ai/ha): 0
- Plant response rating (foxtail, green; Postemergence, 125 g ai/ha): 0
- Plant response rating (foxtail, green; Postemergence, 250 g ai/ha): 0
- Plant response rating (deadnettle; Postemergence, 16 g ai/ha): 0
- Plant response rating (deadnettle; Postemergence, 31 g ai/ha): 0
- Plant response rating (deadnettle; Postemergence, 62 g ai/ha): 0
- Plant response rating (deadnettle; Postemergence, 125 g ai/ha): 0
- Plant response rating (deadnettle; Postemergence, 250 g ai/ha): 0

Compound: O=C1NCC(c2ccc(C(F)(F)F)c(F)c2)C1C(=O)Nc1cccc(F)c1F (racemic) [Compound 247]
- Plant response rating, Sprangletop, Brdd. (sprangletop, Brdd.; 125 g ai/ha): 90
- Plant response rating, Sprangletop, Brdd. (sprangletop, Brdd.; 250 g ai/ha): 95
- Plant response rating, Sprangletop, Brdd. (sprangletop, Brdd.; 500 g ai/ha): 98
- Plant response rating, Sprangletop, Brdd. (sprangletop, Brdd.; 1000 g ai/ha): 98
- Plant response rating, Sprangletop, Brdd. (sprangletop, Brdd.; 2000 g ai/ha): 98
- Plant response rating, Watergrass, Late (watergrass, late; 125 g ai/ha): 65
- Plant response rating, Watergrass, Late (watergrass, late; 250 g ai/ha): 65
- Plant response rating, Watergrass, Late (watergrass, late; 500 g ai/ha): 70
- Plant response rating, Watergrass, Late (watergrass, late; 1000 g ai/ha): 85
- Plant response rating, Watergrass, Late (watergrass, late; 2000 g ai/ha): 90

Compound: O=C1NCC(c2cccc(C(F)(F)F)c2)C1C(=O)Nc1cccc(F)c1F (stereo not shown) [Compound 241]
- Plant response rating, Oilseed Rape (oilseed rape; 31 g ai/ha): 0
- Plant response rating, Oilseed Rape (oilseed rape; 62 g ai/ha): 0
- Plant response rating, Oilseed Rape (oilseed rape; 125 g ai/ha): 5
- Plant response rating, Oilseed Rape (oilseed rape; 250 g ai/ha): 10
- Plant response rating, Mustard, Wild (mustard, wild; Preemergence, 31 g ai/ha): 10
- Plant response rating, Mustard, Wild (mustard, wild; Preemergence, 62 g ai/ha): 15
- Plant response rating, Mustard, Wild (mustard, wild; Preemergence, 125 g ai/ha): 15
- Plant response rating (mustard, wild; Preemergence, 250 g ai/ha): 25
- Plant response rating, Windgrass (windgrass; 31 g ai/ha): 65
- Plant response rating, Windgrass (windgrass; 62 g ai/ha): 90
- Plant response rating, Windgrass (windgrass; 125 g ai/ha): 95
- Plant response rating, Windgrass (windgrass; 250 g ai/ha): 98
- Plant response rating, Foxtail, Green (foxtail, green; Preemergence, 31 g ai/ha): 35
- Plant response rating, Foxtail, Green (foxtail, green; Preemergence, 62 g ai/ha): 90
- Plant response rating, Foxtail, Green (foxtail, green; Preemergence, 125 g ai/ha): 90
- Plant response rating (foxtail, green; Preemergence, 250 g ai/ha): 90
- Plant response rating, Deadnettle (deadnettle; Preemergence, 31 g ai/ha): 35
- Plant response rating, Deadnettle (deadnettle; Preemergence, 62 g ai/ha): 30
- Plant response rating, Deadnettle (deadnettle; Preemergence, 125 g ai/ha): 35
- Plant response rating (deadnettle; Preemergence, 250 g ai/ha): 45
